Experimental data: US9995734B2, “Human T cell line assay for evaluating the immunologic identity of glatiramer acetate preparations” (Mylan Inc., priority 2013, dated 2018)

Key:
Donor 3 GMA T-Cell Lines = experiment: ATP proliferation assay (CellTiter Glo), Donor 3 GMA T-cell lines, incl. reactivity to non-canonical GA peptides; assay type: cell-based, human; conditions: for Mean, ATP proliferation assay: 10 μg/mL
Donor 3 COP T-Cell Lines = experiment: ATP proliferation assay (CellTiter Glo), Donor 3 COP T-cell lines, incl. reactivity to non-canonical GA peptides; assay type: cell-based, human; conditions: for Reactivity (proliferation), Mean: Day 54 of culture; for Mean, ATP proliferation assay: 10 μg/mL

FFKNIVTPRTPPPSQGK [MBP]
Mean, ATP proliferation assay (Donor 3 GMA T-Cell Lines; T-cell line 165-B2G, Day 40): 3320
Proliferation (luminescent ATP assay), Mean (Donor 3 GMA T-Cell Lines; T-cell line 165-B5G, 10 μg/mL antigen, Day 55 of culturing, No Antigen Value 846): 871 RLU
Mean, ATP proliferation assay (Donor 3 GMA T-Cell Lines; T-cell line 165-B5G, Day 40): 3398
Mean, ATP proliferation assay (Donor 3 GMA T-Cell Lines; T-cell line 165-C4G, Day 40): 3482
Proliferation (luminescent ATP assay), Mean (Donor 3 GMA T-Cell Lines; T-cell line 165-C5G, 10 μg/mL antigen, autologous B-LCL): 469 RLU
Mean, ATP proliferation assay (Donor 3 GMA T-Cell Lines; T-cell line 165-C5G, Day 40): 3401
Mean, ATP proliferation assay (Donor 3 GMA T-Cell Lines; T-cell line 165-C8G, tested with the Donor 3 COP lines of Table 25): 5279 RLU
Mean, ATP proliferation assay (Donor 3 GMA T-Cell Lines; T-cell line 165-D8G, Day 40): 6909
Proliferation (luminescent ATP assay), Mean (Donor 3 GMA T-Cell Lines; T-cell line 165-E7G, 10 μg/mL antigen, autologous B-LCL, Day 55): 2116 RLU
Mean, ATP proliferation assay (Donor 3 GMA T-Cell Lines; T-cell line 165-E7G, Day 40): 2989
Proliferation (luminescent ATP assay), Mean (Donor 3 GMA T-Cell Lines; T-cell line 165-E9G, 1 μg/mL antigen, Day 50 of culturing, No Antigen Value 1742): 1527 RLU
Proliferation (luminescent ATP assay), Mean (Donor 3 GMA T-Cell Lines; T-cell line 165-E9G, 3 μg/mL antigen, Day 50 of culturing, No Antigen Value 1742): 1428 RLU
Proliferation (luminescent ATP assay), Mean (Donor 3 GMA T-Cell Lines; T-cell line 165-E9G, 10 μg/mL antigen, autologous B-LCL): 163 RLU
Mean, ATP proliferation assay (Donor 3 GMA T-Cell Lines; T-cell line 165-E9G, Day 40): 2892
Proliferation (luminescent ATP assay), Mean (Donor 3 GMA T-Cell Lines; T-cell line 165-E9G, 30 μg/mL antigen, Day 50 of culturing, No Antigen Value 1742): 1208 RLU
Proliferation (luminescent ATP assay), Mean (Donor 3 GMA T-Cell Lines; T-cell line 165-E9G, 10 μpg/mL antigen, Day 50 of culturing, No Antigen Value 1742): 1247 RLU
Mean, ATP proliferation assay (Donor 3 GMA T-Cell Lines; T-cell line 165-F2G, Day 40): 2345
Proliferation (luminescent ATP assay), Mean (Donor 3 GMA T-Cell Lines; T-cell line 165-F5G, 10 μg/mL antigen, autologous B-LCL): 138 RLU
Mean, ATP proliferation assay (Donor 3 GMA T-Cell Lines; T-cell line 165-F5G, Day 40): 2904
Mean, ATP proliferation assay (Donor 3 GMA T-Cell Lines; T-cell line 165-F8G, Day 40): 3366
Proliferation (luminescent ATP assay), Mean (Donor 3 GMA T-Cell Lines; T-cell line 165-F10G, 10 μg/mL antigen, autologous B-LCL): 831 RLU
Mean, ATP proliferation assay (Donor 3 GMA T-Cell Lines; T-cell line 165-F10G, Day 40): 3585
Proliferation (luminescent ATP assay), Mean (Donor 3 GMA T-Cell Lines; T-cell line 165-H11G, 10 μg/mL antigen, autologous B-LCL): 323 RLU
Mean, ATP proliferation assay (Donor 3 GMA T-Cell Lines; T-cell line 165-H11G, Day 40): 2925
Reactivity (proliferation), Mean (Donor 3 COP T-Cell Lines; T-cell line 165-B6C, 3 μg/mL antigen, No Antigen 2358): 2205 RLU
Reactivity (proliferation), Mean (Donor 3 COP T-Cell Lines; T-cell line 165-B6C, 10 μg/mL antigen, No Antigen 2358): 2268 RLU
Mean, ATP proliferation assay (Donor 3 COP T-Cell Lines; T-cell line 165-B6C, Day 46, after 3 days): 3216 RLU
Reactivity (proliferation), Mean (Donor 3 COP T-Cell Lines; T-cell line 165-B6C, 100 μg/mL antigen, No Antigen 2358): 2201 RLU
Reactivity (proliferation), Mean (Donor 3 COP T-Cell Lines; T-cell line 165-B10C, 3 μg/mL antigen, No Antigen 2234): 2176 RLU
Reactivity (proliferation), Mean (Donor 3 COP T-Cell Lines; T-cell line 165-B10C, 10 μg/mL antigen, No Antigen 2234): 2320 RLU
Mean, ATP proliferation assay (Donor 3 COP T-Cell Lines; T-cell line 165-B10C, Day 46, after 3 days): 3003 RLU
Reactivity (proliferation), Mean (Donor 3 COP T-Cell Lines; T-cell line 165-B10C, 100 μg/mL antigen, No Antigen 2234): 2272 RLU
Mean, ATP proliferation assay (Donor 3 COP T-Cell Lines; T-cell line 165-C4C, Day 39): 1631
Proliferation (luminescent ATP assay), Mean (Donor 3 COP T-Cell Lines; T-cell line 165-C7C, 10 μg/mL antigen, autologous B-LCL): 278 RLU
Mean, ATP proliferation assay (Donor 3 COP T-Cell Lines; T-cell line 165-C7C, Day 39): 1673
Mean, ATP proliferation assay (Donor 3 COP T-Cell Lines; T-cell line 165-D2C, Day 39): 1927
Reactivity (proliferation), Mean (Donor 3 COP T-Cell Lines; T-cell line 165-D3C, 3 μg/mL antigen, No Antigen 8319): 8037 RLU
Reactivity (proliferation), Mean (Donor 3 COP T-Cell Lines; T-cell line 165-D3C, 10 μg/mL antigen, No Antigen 8319): 8656 RLU
Mean, ATP proliferation assay (Donor 3 COP T-Cell Lines; T-cell line 165-D3C, Day 46, after 3 days): 15482 RLU
Reactivity (proliferation), Mean (Donor 3 COP T-Cell Lines; T-cell line 165-D3C, 100 μg/mL antigen, No Antigen 8319): 8647 RLU
Reactivity (proliferation), Mean (Donor 3 COP T-Cell Lines; T-cell line 165-D11C, 3 μg/mL antigen, No Antigen 4571): 4348 RLU
Reactivity (proliferation), Mean (Donor 3 COP T-Cell Lines; T-cell line 165-D11C, 10 μg/mL antigen, No Antigen 4571): 4301 RLU
Mean, ATP proliferation assay (Donor 3 COP T-Cell Lines; T-cell line 165-D11C, Day 46, after 3 days): 8406 RLU
Reactivity (proliferation), Mean (Donor 3 COP T-Cell Lines; T-cell line 165-D11C, 100 μg/mL antigen, No Antigen 4571): 4020 RLU
Reactivity (proliferation), Mean (Donor 3 COP T-Cell Lines; T-cell line 165-E3C, 3 μg/mL antigen, No Antigen 2797): 2898 RLU
Reactivity (proliferation), Mean (Donor 3 COP T-Cell Lines; T-cell line 165-E3C, 10 μg/mL antigen, No Antigen 2797): 2658 RLU
Mean, ATP proliferation assay (Donor 3 COP T-Cell Lines; T-cell line 165-E3C, Day 46, after 3 days): 7662 RLU
Reactivity (proliferation), Mean (Donor 3 COP T-Cell Lines; T-cell line 165-E3C, 100 μg/mL antigen, No Antigen 2797): 2582 RLU
Reactivity (proliferation), Mean (Donor 3 COP T-Cell Lines; T-cell line 165-F3C, 3 μg/mL antigen, No Antigen 3150): 3369 RLU
Reactivity (proliferation), Mean (Donor 3 COP T-Cell Lines; T-cell line 165-F3C, 10 μg/mL antigen, No Antigen 3150): 3115 RLU
Mean, ATP proliferation assay (Donor 3 COP T-Cell Lines; T-cell line 165-F3C, Day 46, after 3 days): 9849 RLU
Reactivity (proliferation), Mean (Donor 3 COP T-Cell Lines; T-cell line 165-F3C, 100 μg/mL antigen, No Antigen 3150): 3017 RLU
Reactivity (proliferation), Mean (Donor 3 COP T-Cell Lines; T-cell line 165-F6C, 3 μg/mL antigen, No Antigen 2189): 1960 RLU
Reactivity (proliferation), Mean (Donor 3 COP T-Cell Lines; T-cell line 165-F6C, 10 μg/mL antigen, No Antigen 2189): 1977 RLU
Mean, ATP proliferation assay (Donor 3 COP T-Cell Lines; T-cell line 165-F6C, Day 46, after 3 days): 2214 RLU
Reactivity (proliferation), Mean (Donor 3 COP T-Cell Lines; T-cell line 165-F6C, 100 μg/mL antigen, No Antigen 2189): 3672 RLU
